Test results reported in patent publication US9474730B2, “Methods and compositions for use with K-ras mediated disorders” (Board of Regents of the University of Texas System, priority 2012, dated 2016).
Where a name gives a salt, the structure may show the parent alone.

How the values were obtained:
[1] = biological target: T1, GFP-CTK (mGFP-tagged C-terminal region of K-ras) in MDCK cells (Homo sapiens, UniProt P01116); assay: High throughput cell-based screen: plasma membrane localization of GFP-CTK; set-up: species or system canine; conditions: fendiline HCl 4 ug/ml, 48 h, MDCK
T1 construct: hypervariable region of K-ras (amino acids 166-188) cloned onto the carboxy terminus of GFP; expressed in transfected cells
Method: FIG. 1: Illustrates results of a high throughput cell-based screening of chemical libraries: Madin-Darby Canine Kidney epithelial cells (MDCK) expressing monomeric green fluorescent protein (mGFP)-tagged C-terminal region of K- or H-ras (GFP-CTK and GFP-CTH) were seeded in 96 well plates and treated with drug libraries for 48 h. Cells were then fixed with paraformaldehyde and imaged by BD Pathway Imager in confocal mode; shown are representative images of cells treated with vehicle, […], and 10 μM FTI-276; wherein experimentation was performed in accordance with principles described herein;
In accordance with some embodiments described herein, wild type MDCK cells or MDCK cells expressing monomeric green fluorescent protein (mGFP)-tagged C-terminal region of K-ras or H-ras (GFP-CTK and GFP-CTH respectively) were seeded in triplicate in 96 well plates (Matrical) at a density of 30,000 cells/well and incubated for 24 h at 37° C. Compounds were individually added to test cells at a concentration of 4 μg/mL (concentration of DMSO 1%) and incubated for a further 48 h.
Cells were then fixed with 4% paraformaldehyde and stored in PBS at 4° C. until imaged. Plates were imaged using a BD Pathway High-Throughput Bioimager. Images were acquired by a 3×3 montage with 20× objective lens using GFP-confocal mode. […]

[2] = biological target: T2, GFP-H-rasG12V in MDCK or BHK cells (Homo sapiens, UniProt P01112, G12V); assay: Cellular fractionation (P100/S100) with quantitative Western blotting, GFP-H-rasG12V; assay type: cell-based, canine (MDCK), hamster (BHK); conditions: 4 μg/mL for MDCK and 6 μg/mL for BHK, 48 hours, vs vehicle
T2 construct: MDCK and BHK cells expressing GFP-tagged full length constitutively active Ras (G12V) proteins; expressed in transfected cells
Method: . Following treatment, membrane (P100) and soluble (S100) protein fractions were prepared and analyzed by quantitative Western blotting. Shown are representative Western blots (showing GFP-Ras) of membrane and soluble protein fractions from 3 independent experiments.
(§1) Preparation of whole-cell lysates: cells were lysed in Buffer B (50 mM Tris [pH 7.5], 75 mM NaCl, 25 mM NaF, 5 mM MgCl2, 5 mM EGTA, 1 mM dithiothreitol, 100 μM NaVO4, 1% Nonidet P-40 plus protease inhibitors). Cellular fractionation: cells were incubated in Buffer A (10 mm Tris-HCl, pH 7.5, 25 mm NaF, 5 mm MgCl2, 1 mm EGTA, 1 mm dithiothreitol, 100 μm NaVO4 plus protease inhibitors) for 30 minutes on ice and lysed by passing through a 27 G needle 30 times. The post nuclear supernatant was centrifuged at 100,000 g for 30 minutes and the membrane pellet was resuspended in Buffer A containing 1% Triton X-100.
(§2) Quantification of intensities was performed using FluorChemQ software.

[3] = tested on: cells expressing constitutively active N-Ras; assay: Signaling downstream of oncogenic N-ras; assay type: cell-based; conditions: data not shown
Method: as §1, §2

[4] = tested on: BHK cells expressing Myc-B-Raf V600E; assay: Signaling in cells expressing constitutively active BRaf, Western blotting; assay type: cell-based, hamster; conditions: 6 μg/mL, 48 h, serum starved BHK cells
Method: FIG. 6: Illustrates that fendiline HCl inhibition occurs at the level of Ras: Whole cell lysates from serum starved BHK cells expressing vector control, FLAG-C-Raf-DD-CAAX or Myc-B-Raf V600E treated with vehicle or fendiline HCl (6 μg/mL) for 48 h were analyzed by quantitative Western blotting. Representative Western blots of c-Raf, pMEK, pERK and Actin (loading control) are shown. Data is shown as mean±SEM from 3-4 independent experiments. Statistical significance was calculated using one way ANOVA and Student's T-test. (*=p<0.05), wherein experimentation was performed in accordance with principles described herein;
as §1, §2

T1 sequence (P01116 166-188 isoform P01116-2 limits assumed): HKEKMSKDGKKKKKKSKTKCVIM

CC(NCCC(c1ccccc1)c1ccccc1)c1ccccc1 (stereo not shown) [fendiline HCl]
localization of GFP-CTK [1]: specifically affected localization of GFP-CTK
localization of GFP-H-rasG12V (fractionation) [2]: does not alter the localization of GFP-H-rasG12V
signaling downstream of oncogenic N-ras [3]: had no effect on signaling downstream of oncogenic N-ras
signaling downstream of constitutively active BRaf [4]: inhibited signaling downstream of constitutively active BRaf
